Assay results from US11279714B2, “Anti-infective compounds” (priority 2014, dated 2022).
Values after ≈ are worked out from the molar mass of the structure shown.

Experiments:
[1] = system: M. tuberculosis H37Rv expressing the green fluorescent protein (H37Rv-GFP); assay: microbe, parasite or virus in culture; format: cell-based; settings: Mycobacterium tuberculosis, H37RV, 120 h; read-out: QUM (MIC50)
[2] = system: Raw 264.7 cells infected with H37Rv-GFP; assay: microbe, parasite or virus in culture; format: cell-based, M. tuberculosis; settings: for MIC50: Mycobacterium tuberculosis, H37RV, 120 h, read-out: QIM (MIC50)

SMILES | MIC50 [1] [µM] | MIC50 [2] [µM] | melting point [°C] | QIM (MIC50, uM) [2]
COc1ccc(NC(=O)c2cc3sc(N4CC5CC4CN5C(=O)OC(C)(C)C)nc3s2)cc1 (stereo not shown) [Compound 93] | > 20 | > 20 | 249 | 
COc1ccc(NC(=O)c2cc3sc(N4CCC(C(N)=O)CC4)nc3s2)cc1 [Compound 126] | 1 to 20 (≈ 0.417 to 8.33 µg/mL) | > 20 | 276.1 | 
O=C(Nc1ccc(F)cc1)c1cc2sc(N3CCCCC3)nc2s1 [Compound 53] | < 1 | < 1 | 233 | 
O=C(Nc1ccc(C(F)(F)F)cc1)c1cc2sc(N3CCCCC3)nc2s1 [Compound 41] | > 20 | < 1 | 289.2 | 
Cc1nc2cc(NC(=O)c3sc4nc(N5CCOCC5)sc4c3Br)ccc2o1 [Compound 157] | > 20 | > 20 | 269 | 
O=C(Nc1cc(-c2ccccc2)[nH]n1)c1cc2sc(N3CCOCC3)nc2s1 [Compound 160] | > 20 | < 1 | 305 | 
CC(=O)c1ccc(NC(=O)c2cc3sc(N4CCOCC4)nc3s2)cc1 [Compound 188] | < 1 | < 1 | 248 | 
CCC1CN(c2nc3sc(C(=O)Nc4ccc5oc(C)nc5c4)cc3s2)CCO1 (stereo not shown) [Compound 153] | < 1 | < 1 | 214 | 
COc1ccc(NC(=O)c2cc3sc(N)nc3s2)cc1 [Compound 64] | > 20 | 1 to 20 (≈ 0.305 to 6.11 µg/mL) | 260 | 
Cc1nc2ccc(NC(=O)c3cc4sc(N5CCOCC5)nc4s3)cc2o1 [Compound 85] | < 1 | < 1 | 273.6 | 
N#Cc1ccc(NC(=O)c2cc3sc(N4CCOCC4)nc3s2)cc1 [Compound 112] | > 20 | < 1 | 212 | 
CCN(CC)C(=O)c1cc2sc(N3CCCCC3)nc2s1 [Compound 57] | 1 to 20 (≈ 0.323 to 6.47 µg/mL) | 1 to 20 (≈ 0.323 to 6.47 µg/mL) | 84 | 
COc1ccc(CCNC(=O)c2cc3sc(N4CCCCC4)nc3s2)cc1 [Compound 42] | 1 to 20 (≈ 0.402 to 8.03 µg/mL) | < 1 | 177.2 | 
Cc1nc2cc(NC(=O)c3cc4sc(N5CCOCC5)nc4s3)c(F)cc2o1 [Compound 181] | > 20 | > 20 | 287 | 
Cc1nc2cc(NC(=O)c3cc4sc(N5CCNCC5)nc4s3)ccc2o1 [Compound 140] | 1 to 20 (≈ 0.4 to 7.99 µg/mL) | 1 to 20 (≈ 0.4 to 7.99 µg/mL) | 235.3 | 
O=C(Nc1ccc(OCc2ccccc2)cc1)c1cc2nc(N3CCCCC3)sc2s1 [Compound 11] | > 20 | > 20 | 223 | 
Cc1nc2cc(NC(=O)c3sc4nc(N5CCOCC5)sc4c3-c3ccccc3)ccc2o1 [Compound 166] | > 20 | > 20 | 285 | 
O=C(Nc1ccc(-c2ccccc2)cc1)c1cc2sc(N3CCCCC3)nc2s1 [Compound 39] | > 20 | < 1 | 231.1 | 
Cc1nc2cc(NC(=O)c3cc4sc(N(C)CCO)nc4s3)ccc2o1 [Compound 201] | < 1 | 1 to 20 (≈ 0.388 to 7.77 µg/mL) | 226.3 | 
O=C1Cc2cc(NC(=O)c3cc4nc(N5CCCCC5)sc4s3)ccc2N1 [Compound 23] | > 20 | > 20 | 260 | 
COc1ccc(NC(=O)c2cc3sc(N4CCCC(N)C4)nc3s2)cc1 (stereo not shown) [Compound 119] | > 20 | < 1 | 232 | 
O=C(Nc1ccc(F)cc1)c1cc2nc(N3CCCCC3)sc2s1 [Compound 8] | 1 to 20 (≈ 0.361 to 7.23 µg/mL) | 1 to 20 (≈ 0.361 to 7.23 µg/mL) | 218 | 

SMILES | MIC50 [1] [µM] | MIC50 [2] [µM] | melting point [°C] | QIM (MIC50, uM) [2]
O=C(Nc1ccc(OC(F)(F)F)cc1)c1cc2nc(N3CCCCC3)sc2s1 [Compound 14] | 1 to 20 (≈ 0.427 to 8.55 µg/mL) | < 1 | 238 | 
Cc1cc2cc(NC(=O)c3cc4sc(N5CCOCC5)nc4s3)ccc2o1 [Compound 135] | 1 to 20 (≈ 0.399 to 7.99 µg/mL) | < 1 | 231.3 | 
Nc1ccc(OC(=O)c2cc3nc(N4CCCCC4)sc3s2)cc1 [Compound 9] | > 20 | > 20 | 153 | 
COc1ccc(NC(=O)c2cc3sc(N4CCC(C(=O)N(C)C)CC4)nc3s2)cc1 [Compound 127] | < 1 | < 1 | 273.4 | 
Cc1nc2cc(NC(=O)c3cc4sc(N5CCC(CO)CC5)nc4s3)ccc2o1 [Compound 144] | < 1 | < 1 | 196.4 | 
Cc1nc2c(NC(=O)c3cc4sc(N5CCOCC5)nc4s3)cccc2o1 [Compound 102] | > 20 | > 20 | 209.3 | 
COc1ccc(NC(=O)c2cc3sc(N4CCN5CCCC5C4)nc3s2)cc1 (stereo not shown) [Compound 100] | 1 to 20 (≈ 0.415 to 8.29 µg/mL) | < 1 | 195 | 
CN(C)C(=O)C1CCN(c2nc3sc(C(=O)Nc4ccc(F)nc4)cc3s2)CC1 [Compound 137] | < 1 | 1 to 20 (≈ 0.434 to 8.67 µg/mL) | 295.9 | 
O=C(Nc1ccc(C(F)(F)F)cc1)c1cc2nc(N3CCCCC3)sc2s1 [Compound 33] | > 20 |  | 228.6 | 
COC(=O)c1ccc(N(C)C(=O)c2cc3nc(N4CCCCC4)sc3s2)cc1 [Compound 31] | > 20 |  | 178.5 | 
Cc1nc2ccc(NC(=O)c3cc4nc(N5CCCCC5)sc4s3)cc2o1 [Compound 34] | > 20 |  | 213 | 
COCCN(C)c1nc2sc(C(=O)Nc3ccc(-c4ccc(C)cn4)cc3)cc2s1 [Compound 262] | < 1 | < 1 |  | 
CN1CCC(Nc2nc3sc(C(=O)Nc4ccc(F)cc4)cc3s2)CC1 [Compound 313] | > 20 | 1 to 20 (≈ 0.391 to 7.81 µg/mL) |  | 
O=C(Nc1ccc(-c2ccc(F)nc2)cc1)c1cc2sc(NCC(O)C(F)(F)F)nc2s1 (stereo not shown) [Compound 341] | 1 to 20 (≈ 0.482 to 9.65 µg/mL) | < 1 |  | 
COc1ccc(NC(=O)c2cc3sc(N4CCNCC4)nc3s2)cc1 [Compound 92] | 1 to 20 (≈ 0.374 to 7.49 µg/mL) | 1 to 20 (≈ 0.374 to 7.49 µg/mL) |  | 
Cc1nc2cc(NC(=O)c3cc4sc(N5CCC(Oc6ccc(Cl)cc6)CC5)nc4s3)ccc2o1 [Compound 207] | 1 to 20 (≈ 0.525 to 10.5 µg/mL) | < 1 |  | 
Cn1ccc(-c2ccc(NC(=O)c3cc4sc(N5CCNCC5)nc4s3)cc2)n1 [Compound 343] | 1 to 20 (≈ 0.425 to 8.49 µg/mL) | < 1 |  | 
COC(=O)C1CCC(NC(=O)c2cc3nc(N4CCCCC4)sc3s2)CC1 (stereo not shown) [Compound 30] | > 20 |  | 191 | 
O=C(Nc1ccc(-c2ccc(F)nc2)cc1)c1cc2sc(N3CCN4CCCC4C3)nc2s1 (stereo not shown) [Compound 338] | < 1 | < 1 |  | 
CS(=O)(=O)O.CS(=O)(=O)O.O=C(Nc1ccc(-c2ccc(F)cn2)cc1)c1cc2sc(NCCN3CCOCC3)nc2s1 [Compound 360] | < 1 |  |  | +++ (+++ indicates <1 uM)
Cc1nc2cc(NC(=O)c3cc4sc(N5CCC(Nc6ccc(F)cc6)CC5)nc4s3)ccc2o1 [Compound 320] | 1 to 20 (≈ 0.508 to 10.2 µg/mL) | < 1 |  | 
CC1CCN(c2ccc(NC(=O)c3cc4sc(NCCOc5ccc(Cl)cc5)nc4s3)cc2)CC1 [Compound 347] | > 20 | > 20 |  | 
